Measured values from the NIST ThermoML archive (doi:10.1016/j.jct.2008.02.020).
± gives the expanded uncertainty stated by the source.

Conditions: Liquid, Buoyancy - hydrostatic balance with magnetic suspension - one sinker

Brc1ccccc1 [bromobenzene]
Conditions | mass density [kg/m3]
248.15 K, 99.7 kPa | 1554.49 ± 0.68
248.15 K, 1231.4 kPa | 1555.37 ± 0.68
248.15 K, 2075.4 kPa | 1556.04 ± 0.68
248.15 K, 4196.2 kPa | 1557.7 ± 0.68
248.15 K, 5951 kPa | 1559.05 ± 0.68
248.15 K, 8068.3 kPa | 1560.67 ± 0.68
248.15 K, 10015 kPa | 1562.11 ± 0.68
248.15 K, 11952 kPa | 1563.58 ± 0.69
248.15 K, 13995 kPa | 1565.09 ± 0.69
248.15 K, 15940 kPa | 1566.53 ± 0.69
248.15 K, 18145 kPa | 1568.12 ± 0.69
248.15 K, 19946 kPa | 1569.42 ± 0.69
248.15 K, 21965 kPa | 1570.86 ± 0.69
248.15 K, 24136 kPa | 1572.41 ± 0.69
248.15 K, 25865 kPa | 1573.62 ± 0.69
248.15 K, 27917 kPa | 1575.05 ± 0.69
248.15 K, 29850 kPa | 1576.39 ± 0.69
273.15 K, 100.51 kPa | 1520.56 ± 0.66
273.15 K, 1116.3 kPa | 1521.45 ± 0.66
273.15 K, 2128.1 kPa | 1522.34 ± 0.66
273.15 K, 4045.8 kPa | 1524.03 ± 0.66
273.15 K, 5967.3 kPa | 1525.66 ± 0.66
273.15 K, 8142.8 kPa | 1527.52 ± 0.66
273.15 K, 10020 kPa | 1529.11 ± 0.66
273.15 K, 11896 kPa | 1530.68 ± 0.66
273.15 K, 13922 kPa | 1532.35 ± 0.66
273.15 K, 16083 kPa | 1534.13 ± 0.67
273.15 K, 18195 kPa | 1535.83 ± 0.67
273.15 K, 20035 kPa | 1537.31 ± 0.67
273.15 K, 21829 kPa | 1538.75 ± 0.67
273.15 K, 23856 kPa | 1540.34 ± 0.67
273.15 K, 25976 kPa | 1542.02 ± 0.67
273.15 K, 28098 kPa | 1543.65 ± 0.67
273.15 K, 29947 kPa | 1545.09 ± 0.67
293.15 K, 101.93 kPa | 1493.56 ± 0.64
293.15 K, 1239.7 kPa | 1494.68 ± 0.64
293.15 K, 2010.7 kPa | 1495.41 ± 0.64
293.15 K, 4059.7 kPa | 1497.37 ± 0.64
293.15 K, 6007.9 kPa | 1499.22 ± 0.64
293.15 K, 8079.8 kPa | 1501.16 ± 0.64
293.15 K, 10001 kPa | 1502.94 ± 0.64
293.15 K, 11960 kPa | 1504.73 ± 0.65
293.15 K, 14169 kPa | 1506.73 ± 0.65
293.15 K, 15879 kPa | 1508.27 ± 0.65
293.15 K, 17960 kPa | 1510.11 ± 0.65
293.15 K, 19999 kPa | 1511.9 ± 0.65
293.15 K, 21880 kPa | 1513.53 ± 0.65
293.15 K, 24122 kPa | 1515.46 ± 0.65
293.15 K, 26141 kPa | 1517.17 ± 0.65
293.15 K, 28060 kPa | 1518.79 ± 0.65
293.15 K, 29993 kPa | 1520.42 ± 0.66
313.15 K, 102.54 kPa | 1466.55 ± 0.62
313.15 K, 2000.8 kPa | 1468.59 ± 0.62
313.15 K, 4011 kPa | 1470.71 ± 0.62
313.15 K, 6189.6 kPa | 1473 ± 0.62
313.15 K, 7991.6 kPa | 1474.86 ± 0.62
313.15 K, 10089 kPa | 1477.01 ± 0.63
313.15 K, 12143 kPa | 1479.06 ± 0.63
313.15 K, 14015 kPa | 1480.93 ± 0.63
313.15 K, 16087 kPa | 1482.94 ± 0.63
313.15 K, 18047 kPa | 1484.85 ± 0.63
313.15 K, 20004 kPa | 1486.73 ± 0.63
313.15 K, 22154 kPa | 1488.76 ± 0.63
313.15 K, 23944 kPa | 1490.45 ± 0.64
313.15 K, 26100 kPa | 1492.42 ± 0.64
313.15 K, 28042 kPa | 1494.21 ± 0.64
313.15 K, 29906 kPa | 1495.9 ± 0.64
333.15 K, 100.42 kPa | 1439.38 ± 0.6
333.15 K, 1115 kPa | 1440.6 ± 0.6
333.15 K, 1943.4 kPa | 1441.57 ± 0.6
333.15 K, 4094.5 kPa | 1444.1 ± 0.6
333.15 K, 6114.2 kPa | 1446.44 ± 0.61
333.15 K, 7927.8 kPa | 1448.51 ± 0.61
333.15 K, 10022 kPa | 1450.84 ± 0.61
333.15 K, 11958 kPa | 1453 ± 0.61
333.15 K, 13999 kPa | 1455.24 ± 0.61
333.15 K, 16049 kPa | 1457.44 ± 0.61
333.15 K, 18156 kPa | 1459.68 ± 0.61
333.15 K, 20008 kPa | 1461.63 ± 0.62
333.15 K, 22158 kPa | 1463.84 ± 0.62
333.15 K, 24130 kPa | 1465.86 ± 0.62
333.15 K, 26094 kPa | 1467.85 ± 0.62
333.15 K, 28018 kPa | 1469.76 ± 0.62
333.15 K, 29890 kPa | 1471.61 ± 0.62
353.15 K, 99.8 kPa | 1411.94 ± 0.58
353.15 K, 1173.8 kPa | 1413.37 ± 0.59
353.15 K, 1944.3 kPa | 1414.39 ± 0.59
353.15 K, 3949.8 kPa | 1417.01 ± 0.59
353.15 K, 5968.9 kPa | 1419.61 ± 0.59
353.15 K, 7990.5 kPa | 1422.16 ± 0.59
353.15 K, 9916 kPa | 1424.56 ± 0.59
353.15 K, 11987 kPa | 1427.09 ± 0.59
353.15 K, 14135 kPa | 1429.67 ± 0.6
353.15 K, 15921 kPa | 1431.8 ± 0.6
353.15 K, 18146 kPa | 1434.39 ± 0.6
353.15 K, 19874 kPa | 1436.37 ± 0.6
353.15 K, 22180 kPa | 1438.99 ± 0.6
353.15 K, 23964 kPa | 1440.98 ± 0.6
353.15 K, 26085 kPa | 1443.32 ± 0.6
353.15 K, 28122 kPa | 1445.53 ± 0.61
